Assay results taken from patent US20240228458A1, “PYRIMIDINE DERIVATIVE HAVING PROTEIN KINASE INHIBITORY ACTIVITY, AND THERAPEUTIC PHARMACEUTICAL COMPOSITION COMPRISING SAME” (THERAPEX CO., LTD., priority 2021, published 2024).

Columns and labels:
Format in all cases: cell-based
[1] = tested on: Ba/F3 cells expressing EGFR-wt; experiment: Growth inhibition (GI50) of Ba/F3 cells expressing EGFR-wt, Celltiter glo; details: Mus musculus, BaF3, 72 h
Summary of the method: (§1)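 Ba/F3 cells carrying the given EGFR variant were seeded at 100,000 cells/ml and, 4 h later, treated with 10-point, 4-fold serial dilutions prepared from a 2 mM stock (0.5% DMSO final). After 72 h at 37 °C and 5% CO2, viable cells were quantified by CellTiter-Glo luminescence to derive GI50.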

[2] = tested on: Ba/F3 cells expressing del19/T790M/C797S (EGFR-DTC); experiment: Growth inhibition (GI50) of Ba/F3 cells expressing del19/T790M/C797S (EGFR-DTC), Celltiter glo; details: Mus musculus, BaF3, 72 h
Summary of the method: as §1

[3] = tested on: Ba/F3 cells expressing L858R/T790M/C797S (EGFR-LTC); experiment: Growth inhibition (GI50) of Ba/F3 cells expressing L858R/T790M/C797S (EGFR-LTC), Celltiter glo; details: Mus musculus, BaF3, 72 h
Summary of the method: as §1

[4] = tested on: Ba/F3 cells expressing del19/T790M (EGFR-DT); experiment: Growth inhibition (GI50) of Ba/F3 cells expressing del19/T790M (EGFR-DT), Celltiter glo; details: Mus musculus, BaF3, 72 h
Summary of the method: as §1

[5] = tested on: Ba/F3 cells expressing L858R/T790M (EGFR-LT); experiment: Growth inhibition (GI50) of Ba/F3 cells expressing L858R/T790M (EGFR-LT), Celltiter glo; details: Mus musculus, BaF3, 72 h
Summary of the method: as §1

parental Ba/F3 cell line = experiment: Growth inhibition (GI50) of the parental Ba/F3 cell line (not introduced with EGFR variants), Celltiter glo; details: Mus musculus, BaF3, 72 h, parental Ba/F3 cells
Summary of the method: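 Parental Ba/F3 cells (100,000 cells/ml) were treated with 10-point, 4-fold compound dilutions (0.5% DMSO; top stock 2 mM) for 72 h at 37 °C, 5% CO2. Viability was read by CellTiter-Glo; GI50 is the concentration (μM) giving 50% growth inhibition.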

Compound: COc1cc(N2CCC(N3CCN(C4CC4)CC3)CC2)c(C)cc1Nc1ncc(Cl)c(Nc2cc3c(cc2NS(C)(=O)=O)CCO3)n1 [Example 208, N-(6-((5-chloro-2-((4-(4-(4-cyclopropylpiperazin-1-yl)piperidin-1-yl)-2-methoxy-5-methylphenyl)amino)pyrimidin-4-yl)amino)-2,3-dihydrobenzofuran-5-yl)methanesulfonamide]
- GI50 [1]: 100 to 500 nM
- GI50 [2]: 1 to 25 nM
- GI50 [3]: 25 to 100 nM
- GI50 [4]: 1 to 25 nM
- GI50 [5]: 1 to 25 nM
- GI50 (parental Ba/F3 cell line): 2000 to 10000 nM

Compound: COc1cc(N2CCC(N3CCC(N(C)C)C3)CC2)c(C)cc1Nc1ncc(Cl)c(Nc2cc3c(cc2NS(C)(=O)=O)CCO3)n1 (stereo not drawn) [Example 209, N-(6-((5-chloro-2-((4-(4-(3-(dimethylamino)pyrrolidin-1-yl)piperidin-1-yl)-2-methoxy-5-methylphenyl)amino)pyrimidin-4-yl)amino)-2,3-dihydrobenzofuran-5-yl)methanesulfonamide]
- GI50 [1]: 100 to 500 nM
- GI50 [2]: 1 to 25 nM
- GI50 [3]: 25 to 100 nM
- GI50 [4]: 25 to 100 nM
- GI50 [5]: 1 to 25 nM
- GI50 (parental Ba/F3 cell line): 2000 to 10000 nM

Compound: Cc1cc(Nc2ncc(Cl)c(Nc3cc4c(cc3NS(C)(=O)=O)CCO4)n2)c(Cl)cc1N1CCC(N2CCC(N(C)C)C2)CC1 (stereo not drawn) [Example 210, N-(6-((5-chloro-2-((2-chloro-4-(4-(3-(dimethylamino)pyrrolidin-1-yl)piperidin-1-yl)-5-methylphenyl)amino)pyrimidin-4-yl)amino)-2,3-dihydrobenzofuran-5-yl)methanesulfonamide]
- GI50 [1]: 500 to 2000 nM
- GI50 [2]: 100 to 500 nM
- GI50 [3]: 25 to 100 nM
- GI50 [4]: 25 to 100 nM
- GI50 [5]: 25 to 100 nM
- GI50 (parental Ba/F3 cell line): 2000 to 10000 nM

Compound: COc1cc(N2CCC(N3CCC(N(C)C)C3)CC2)c(C)cc1Nc1ncc(Br)c(Nc2cc3c(cc2NS(C)(=O)=O)CCO3)n1 (stereo not drawn) [Example 211, N-(6-((5-bromo-2-((4-(4-(3-(dimethylamino)pyrrolidin-1-yl)piperidin-1-yl)-2-methoxy-5-methylphenyl)amino)pyrimidin-4-yl)amino)-2,3-dihydrobenzofuran-5-yl)methanesulfonamide]
- GI50 [1]: 100 to 500 nM
- GI50 [2]: 25 to 100 nM
- GI50 [3]: 1 to 25 nM
- GI50 [4]: 1 to 25 nM
- GI50 [5]: 25 to 100 nM
- GI50 (parental Ba/F3 cell line): 2000 to 10000 nM

Compound: COc1cc(N2CCC(N3CCN(C4CC4)CC3)CC2)c(C)cc1Nc1ncc(Br)c(Nc2cc3c(cc2NS(C)(=O)=O)CCO3)n1 [Example 212, N-(6-((5-bromo-2-((4-(4-(4-cyclopropylpiperazin-1-yl)piperidin-1-yl)-2-methoxy-5-methylphenyl)amino)pyrimidin-4-yl)amino)-2,3-dihydrobenzofuran-5-yl)methanesulfonamide]
- GI50 [1]: 100 to 500 nM
- GI50 [2]: 25 to 100 nM
- GI50 [3]: 1 to 25 nM
- GI50 [4]: 1 to 25 nM
- GI50 [5]: 1 to 25 nM
- GI50 (parental Ba/F3 cell line): 2000 to 10000 nM

Compound: Cc1cc(Nc2ncc(Br)c(Nc3cc4c(cc3NS(C)(=O)=O)CCO4)n2)c(Cl)cc1N1CCC(N2CCC(N(C)C)C2)CC1 (stereo not drawn) [Example 213, N-(6-((5-bromo-2-((2-chloro-4-(4-(3-(dimethylamino)pyrrolidin-1-yl)piperidin-1-yl)-5-methylphenyl)amino)pyrimidin-4-yl)amino)-2,3-dihydrobenzofuran-5-yl)methanesulfonamide]
- GI50 [1]: 100 to 500 nM
- GI50 [2]: 25 to 100 nM
- GI50 [3]: 25 to 100 nM
- GI50 [4]: 1 to 25 nM
- GI50 [5]: 100 to 500 nM
- GI50 (parental Ba/F3 cell line): 2000 to 10000 nM

Compound: Cc1cc(Nc2ncc(Br)c(Nc3cc4c(cc3NS(C)(=O)=O)CCO4)n2)c(Cl)cc1N1CCC(N2CCCC(N(C)C)C2)CC1 (stereo not drawn) [Example 214, N-(6-((5-bromo-2-((2-chloro-4-(3-(dimethylamino)-[1,4′-bipiperidin]-1′-yl)-5-methylphenyl)amino)pyrimidin-4-yl)amino)-2,3-dihydrobenzofuran-5-yl)methanesulfonamide]
- GI50 [1]: 100 to 500 nM
- GI50 [2]: 25 to 100 nM
- GI50 [3]: 25 to 100 nM
- GI50 [4]: 1 to 25 nM
- GI50 [5]: 1 to 25 nM
- GI50 (parental Ba/F3 cell line): 2000 to 10000 nM

Compound: COc1cc(N2CCC(N3CCNCC3)CC2)c(C)cc1Nc1ncc(Br)c(Nc2cc3c(cc2NS(C)(=O)=O)CCO3)n1 [Example 215, N-(6-((5-bromo-2-((2-methoxy-5-methyl-4-(4-(piperazin-1-yl)piperidin-1-yl)phenyl)amino)pyrimidin-4-yl)amino)-2,3-dihydrobenzofuran-5-yl)methanesulfonamide]
- GI50 [1]: 100 to 500 nM
- GI50 [2]: 25 to 100 nM
- GI50 [3]: 25 to 100 nM
- GI50 [4]: 1 to 25 nM
- GI50 [5]: 25 to 100 nM
- GI50 (parental Ba/F3 cell line): 2000 to 10000 nM

Compound: COc1cc(N2CCC(N3CCCC(N(C)C)C3)CC2)c(Cl)cc1Nc1ncc(Br)c(Nc2cc3c(cc2NS(C)(=O)=O)CCO3)n1 (stereo not drawn) [Example 216, N-(6-((5-bromo-2-((5-chloro-4-(3-(dimethylamino)-[1,4′-bipiperidin]-1′-yl)-2-methoxyphenyl)amino)pyrimidin-4-yl)amino)-2,3-dihydrobenzofuran-5-yl)methanesulfonamide]
- GI50 [1]: 25 to 100 nM
- GI50 [2]: 1 to 25 nM
- GI50 [3]: 25 to 100 nM
- GI50 [4]: 1 to 25 nM
- GI50 [5]: 1 to 25 nM
- GI50 (parental Ba/F3 cell line): 2000 to 10000 nM

Compound: CN1CCN(C2CCN(c3cc(Cl)c(Nc4ncc(Br)c(Nc5cc6c(cc5NS(C)(=O)=O)CCO6)n4)cc3Cl)CC2)CC1 [Example 217, N-(6-((5-bromo-2-((2,5-dichloro-4-(4-(4-methylpiperazin-1-yl)piperidin-1-yl)phenyl)amino)pyrimidin-4-yl)amino)-2,3-dihydrobenzofuran-5-yl)methanesulfonamide]
- GI50 [1]: 100 to 500 nM
- GI50 [2]: 1 to 25 nM
- GI50 [3]: 1 to 25 nM
- GI50 [4]: 1 to 25 nM
- GI50 [5]: 1 to 25 nM
- GI50 (parental Ba/F3 cell line): 500 to 2000 nM

Compound: COc1cc(N2CCC(N3CCCC(N(C)C)C3)CC2)c(C)cc1Nc1ncc(Cl)c(Nc2cc3c(cc2NS(C)(=O)=O)CCO3)n1 (stereo not drawn) [Example 218, N-(6-((5-chloro-2-((4-(3-(dimethylamino)-[1,4′-bipiperidin]-1′-yl)-2-methoxy-5-methylphenyl)amino)pyrimidin-4-yl)amino)-2,3-dihydrobenzofuran-5-yl)methanesulfonamide]
- GI50 [1]: 100 to 500 nM
- GI50 [2]: 1 to 25 nM
- GI50 [3]: 100 to 500 nM
- GI50 [4]: 1 to 25 nM
- GI50 [5]: 25 to 100 nM
- GI50 (parental Ba/F3 cell line): 500 to 2000 nM

Compound: COc1cc(N2CCC(N3CCCC(N(C)C)C3)CC2)c(Cl)cc1Nc1ncc(Cl)c(Nc2cc3c(cc2NS(C)(=O)=O)CCO3)n1 (stereo not drawn) [Example 219, N-(6-((5-chloro-2-((5-chloro-4-(3-(dimethylamino)-[1,4′-bipiperidin]-1′-yl)-2-methoxyphenyl)amino)pyrimidin-4-yl)amino)-2,3-dihydrobenzofuran-5-yl)methanesulfonamide]
- GI50 [1]: 100 to 500 nM
- GI50 [2]: 1 to 25 nM
- GI50 [3]: 25 to 100 nM
- GI50 [4]: 1 to 25 nM
- GI50 [5]: 1 to 25 nM
- GI50 (parental Ba/F3 cell line): 2000 to 10000 nM

Compound: COc1cc(N2CCC(N3CCN(C)CC3)CC2)ccc1Nc1ncc(Cl)c(Nc2cc3c(cc2NS(C)(=O)=O)CCO3)n1 [Example 220, N-(6-((5-chloro-2-((2-methoxy-4-(4-(4-methylpiperazin-1-yl)piperidin-1-yl)phenyl)amino)pyrimidin-4-yl)amino)-2,3-dihydrobenzofuran-5-yl)methanesulfonamide]
- GI50 [1]: 500 to 2000 nM
- GI50 [2]: 100 to 500 nM
- GI50 [3]: 100 to 500 nM
- GI50 [4]: 100 to 500 nM
- GI50 [5]: 25 to 100 nM
- GI50 (parental Ba/F3 cell line): 25 to 100 nM

Compound: CN1CCN(C2CCN(c3ccc(Nc4ncc(Cl)c(Nc5cc6c(cc5NS(C)(=O)=O)CCO6)n4)c(Cl)c3)CC2)CC1 [Example 221, N-(6-((5-chloro-2-((2-chloro-4-(4-(4-methylpiperazin-1-yl)piperidin-1-yl)phenyl)amino)pyrimidin-4-yl)amino)-2,3-dihydrobenzofuran-5-yl)methanesulfonamide]
- GI50 [1]: 100 to 500 nM
- GI50 [2]: 25 to 100 nM
- GI50 [3]: 25 to 100 nM
- GI50 [4]: 25 to 100 nM
- GI50 [5]: 25 to 100 nM
- GI50 (parental Ba/F3 cell line): 500 to 2000 nM

Compound: COc1cc(N2CCC(N3CCN(C)CC3)CC2)c(F)cc1Nc1ncc(Cl)c(Nc2cc3c(cc2NS(C)(=O)=O)CCO3)n1 [Example 222, N-(6-((5-chloro-2-((5-fluoro-2-methoxy-4-(4-(4-methylpiperazin-1-yl)piperidin-1-yl)phenyl)amino)pyrimidin-4-yl)amino)-2,3-dihydrobenzofuran-5-yl)methanesulfonamide]
- GI50 [1]: 100 to 500 nM
- GI50 [2]: 1 to 25 nM
- GI50 [3]: 100 to 500 nM
- GI50 [4]: 1 to 25 nM
- GI50 [5]: 1 to 25 nM
- GI50 (parental Ba/F3 cell line): 2000 to 10000 nM

Compound: CN1CCN(C2CCN(c3ccc4cc(Nc5ncc(Cl)c(Nc6cc7c(cc6NS(C)(=O)=O)CCO7)n5)ccc4n3)CC2)CC1 [Example 223, N-(6-((5-chloro-2-((2-(4-(4-methylpiperazin-1-yl)piperidin-1-yl)quinolin-6-yl)amino)pyrimidin-4-yl)amino)-2,3-dihydrobenzofuran-5-yl)methanesulfonamide]
- GI50 [1]: 2000 to 10000 nM
- GI50 [2]: 500 to 2000 nM
- GI50 [3]: 500 to 2000 nM
- GI50 [4]: 100 to 500 nM
- GI50 [5]: 100 to 500 nM
- GI50 (parental Ba/F3 cell line): 2000 to 10000 nM

Compound: COc1cc(N2CCC(Nc3ccnn3C)CC2)c(C)cc1Nc1ncc(Cl)c(Nc2cc3c(cc2NS(C)(=O)=O)CCO3)n1 [Example 224, N-(6-((5-chloro-2-((2-methoxy-5-methyl-4-(4-((1-methyl-1H-pyrazol-5-yl)amino)piperidin-1-yl)phenyl)amino)pyrimidin-4-yl)amino)-2,3-dihydrobenzofuran-5-yl)methanesulfonamide]
- GI50 [1]: 500 to 2000 nM
- GI50 [2]: 25 to 100 nM
- GI50 [3]: 25 to 100 nM
- GI50 [4]: 100 to 500 nM
- GI50 [5]: 25 to 100 nM
- GI50 (parental Ba/F3 cell line): 100 to 500 nM
